What all share (test): NCI-60 cell line screen, 48 h
Experiment [1] deals with SK-MEL-5.
The test system of experiment [2] is IGROV-1.
The test system of experiment [3] is NCI/ADR-RES.
In experiment [4] the test system is U-251.
Experiment [5] has as its system HCT-116.
In experiment [6] the test system is BT-549.
The test system of experiment [7] is NCI-H522.
Experiment [8] has as its system SNB-75.
Experiment [9] relates to ACHN.
Experiment [10] has as its system HCC 2998.
Experiment [11] has as its system SK-MEL-28.
Experiment [12] relates to HT-29.
Experiment [13] deals with UACC-257.
The test system of experiment [14] is RXF 393.
Experiment [15] deals with MDA-MB-435.
Experiment [16] deals with Malme-3M.
Experiment [17] has as its system T47D.
The subject of experiment [18] is SF-539.
The test system of experiment [19] is HCT-15.
The subject of experiment [20] is RPMI-8226.

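Cells were grown in 96-well plates and exposed to each compound for 48 hours at five concentrations; endpoints were interpolated linearly between bracketing concentrations, or set to the highest concentration if not reached. GI50 is the concentration that inhibits growth by half.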 Activity calls are given as the source filed them. Rule as the data show it: active = GI50 up to about 1.1 µM and inactive = higher.

Data on 9 molecules can be found in ChEMBL document CHEMBL1201862, “PubChem BioAssay data set” (2004).

As for `N#Cc1c(NC(=O)C(F)(F)F)sc2c3c(=O)c4ccccc4c(=O)c=3oc3ccccc3c12`, the GI50 in experiment [1] was 11.3 µM (inactive); in experiment [2], 11.9 µM (inactive); in experiment [3], 24.8 µM (inactive); in [4] it was 14.7 µM (inactive); in experiment [5], 11.9 µM (inactive); in [6] it was 19.6 µM (inactive). In addition, the GI50 in [7] was 7.89 µM (inactive); in experiment [8] it was 16.8 µM (inactive); in experiment [9] it was 21.1 µM (inactive); in experiment [10], 13.9 µM (inactive); in [11], 20.4 µM (inactive); in [12] it was 19.2 µM (inactive). Also, the GI50 was 16.7 µM (inactive) in [13]; 10 µM (inactive) in experiment [14]; 17.1 µM (inactive) in experiment [15]; 1.1 µM (active) in experiment [16]; 21.4 µM (inactive) in [17]; 7.24 µM (inactive) in experiment [18]. The GI50 in [19] was 13.1 µM; in [20], 12.7 µM (inactive).

For the molecule `O=C(O)CCn1cnc2c(S)ncnc21`, the GI50 in experiment [1], in [2], in experiment [3], in experiment [4], in experiment [5] and in experiment [6] was > 100 µM (inactive) throughout. The GI50 in experiment [7], in experiment [8], in [9], in experiment [10], in experiment [11] and in experiment [12] was > 100 µM (inactive) in each case. For the same molecule, the GI50 in experiment [13], in [14], in experiment [15], in experiment [16], in [17] and in [18] was > 100 µM (inactive) in each case. In addition, the figures for the GI50 in experiment [19] and in experiment [20] were over 100 µM and > 100 µM (inactive), respectively.

As for `Cc1ccc(C(=O)/C=C2/Nc3ccccc3NC2=O)c(C)c1`, the GI50 was 19 µM (inactive) in experiment [1]; 12.7 µM (inactive) in [2]; 7.89 µM (inactive) in [3]; 11.2 µM (inactive) in experiment [4]; 11.8 µM (inactive) in [5]; 35.4 µM (inactive) in experiment [6]. Further, the GI50 was 7.73 µM (inactive) in experiment [7]; 6.32 µM (inactive) in [8]; 8.36 µM (inactive) in experiment [9]; 29.4 µM (inactive) in experiment [10]; 14.7 µM (inactive) in [11]; 23.4 µM (inactive) in experiment [12]. Also, the GI50 is 42.1 µM (inactive) in experiment [13]; 7.52 µM (inactive) in experiment [14]; 30.8 µM (inactive) in experiment [15]; 54.6 µM (inactive) in experiment [16]; 22.1 µM (inactive) in [17]; 5.04 µM (inactive) in [18]. Moreover, the values for the GI50 in experiment [19] and in experiment [20] were 64.3 µM and 25.2 µM (inactive), respectively.

Turning to `COC(=O)C(Cc1c[nH]c2ccccc12)NC1=Nc2ccncc2S(=O)(=O)N1c1ccccc1` (stereo not given), the GI50 is 16 µM (inactive) in experiment [1]; 31 µM (inactive) in [2]; 33 µM (inactive) in experiment [3]; 41.5 µM (inactive) in experiment [4]; 27.1 µM (inactive) in experiment [5]; 35 µM (inactive) in experiment [6]. Moreover, the GI50 in experiment [7] was 28 µM (inactive); in [8] it was 20.7 µM (inactive); in experiment [9] it was 29.9 µM (inactive); in experiment [10], 27.5 µM (inactive); in experiment [11], 28.4 µM (inactive); in experiment [12] it was 18.9 µM (inactive). Further, the GI50 in experiment [13] is 50.1 µM (inactive); in experiment [14], 19.9 µM (inactive); in experiment [15], 32.1 µM (inactive); in experiment [16] it was 19 µM (inactive); in experiment [17], 20.5 µM (inactive); in experiment [18], 17.1 µM (inactive). Besides, the GI50 in [19] was 77.6 µM; in experiment [20], 13.1 µM (inactive).

For the molecule `COC(=O)C1=C(OC(=O)/C(=C/c2ccccc2)c2ccc(Cl)cc2Cl)C(C(=O)OC)[C@@]2(O)[C@@H](C(=O)OC)[C@H](C)C[C@@H]1[C@@H]2C(=O)OC` (stereo not given in full), the GI50 in experiment [1] was 82.8 µM (inactive); in [2], > 100 µM (inactive); in [3] it was > 100 µM (inactive); in experiment [4], > 100 µM (inactive); in [5] it was > 100 µM (inactive); in experiment [6], > 100 µM (inactive). Besides, the GI50 was > 100 µM (inactive) in experiment [7]; 75.9 µM (inactive) in experiment [8]; 42 µM (inactive) in experiment [9]; > 100 µM (inactive) in experiment [10]; > 100 µM (inactive) in experiment [11]; > 100 µM (inactive) in experiment [12]. The GI50 in [13], in experiment [14], in experiment [15], in experiment [16], in experiment [17] and in experiment [18] was > 100 µM (inactive) in each case. Moreover, the GI50 was over 100 µM in [19] and > 100 µM (inactive) in [20].

In the case of `CSc1nc(C)c(CCOC(C)=O)c(Cl)n1`, the GI50 in [1], in experiment [2], in experiment [3], in [4], in experiment [5] and in experiment [6] was > 100 µM (inactive) each time. Also, the GI50 in experiment [7], in experiment [8], in [9], in experiment [10], in experiment [11] and in experiment [12] was > 100 µM (inactive) each time. Moreover, the GI50 in experiment [13], in experiment [14], in experiment [15], in experiment [16], in experiment [17] and in [18] was > 100 µM (inactive) each time. Further, the GI50 in [19] was over 100 µM; in experiment [20] it was > 100 µM (inactive).

With `Cc1ccc(S(=O)(=O)N/N=C/C(=C/c2ccc(Cl)cc2)CC(/C=N/NS(=O)(=O)c2ccc(C)cc2)=C\c2ccc(Cl)cc2)cc1`, the GI50 in [1] was 4.03 µM (inactive); in [2] it was 5.81 µM (inactive); in experiment [3], 7.36 µM (inactive); in [4], 4.78 µM (inactive); in experiment [5], 4.6 µM (inactive); in [6] it was 6.15 µM (inactive). In addition, the GI50 in experiment [7] is 4.03 µM (inactive); in experiment [8], 3.96 µM (inactive); in experiment [9] it was 6.04 µM (inactive); in experiment [10] it was 3.21 µM (inactive); in experiment [11], 5.52 µM (inactive); in experiment [12], 5.51 µM (inactive). The GI50 is 11.4 µM (inactive) in [13]; 3.56 µM (inactive) in experiment [14]; 3.72 µM (inactive) in experiment [15]; 8.2 µM (inactive) in experiment [16]; 4.78 µM (inactive) in experiment [17]; 12.1 µM (inactive) in experiment [18]. Besides, the results for the GI50 in [19] and in experiment [20] were 3.58 µM and 2.64 µM (inactive), respectively.

As for `CCOC(=O)c1cn2c(n1)sc1cc(Cl)ccc12`, the GI50 in experiment [1] was 7.76 µM (inactive); in experiment [2] it was 24.7 µM (inactive); in [3] it was 19.6 µM (inactive); in experiment [4], 14.1 µM (inactive); in [5], 3.37 µM (inactive); in experiment [6], > 100 µM (inactive). In addition, the GI50 in experiment [7] is 31.2 µM (inactive); in [8], 31 µM (inactive); in [9] it was 14.5 µM (inactive); in [10], > 100 µM (inactive); in [11], 76.2 µM (inactive); in [12], 17 µM (inactive). For the same molecule, the GI50 in [13] was 26.7 µM (inactive); in experiment [14], 45 µM (inactive); in experiment [15], 5.68 µM (inactive); in experiment [16], 13.1 µM (inactive); in experiment [17] it was 57.8 µM (inactive); in [18], 5.78 µM (inactive). The GI50 was 5.64 µM in experiment [19] and 8.41 µM (inactive) in [20].

As for `O=C(O)Cc1cccc2c1OC(c1ccccc1)C(Cl)(C(=O)c1ccccc1)C2=O` (stereo not given), the GI50 in experiment [1] was 15.3 µM (inactive); in [2], 15.6 µM (inactive); in experiment [3], 22.2 µM (inactive); in [4], 17.2 µM (inactive); in experiment [5], 15.1 µM (inactive); in experiment [6], 43 µM (inactive). Besides, the GI50 was 14.2 µM (inactive) in experiment [7]; 19.1 µM (inactive) in experiment [8]; 14 µM (inactive) in [9]; 13.2 µM (inactive) in [10]; 15.6 µM (inactive) in [11]; 16.4 µM (inactive) in experiment [12]. Besides, the GI50 in experiment [13] was 15.3 µM (inactive); in experiment [14] it was > 10 µM (inactive); in [15], 15.8 µM (inactive); in experiment [16], 18.2 µM (inactive); in [17], 16.9 µM (inactive); in [18] it was 31.6 µM (inactive). Also, the values for the GI50 in experiment [19] and in [20] were 14.4 µM and 17.4 µM (inactive), respectively.
